# According to ChEMBL document CHEMBL1201862, “PubChem BioAssay data set” (2004):
# Active and inactive are the calls of the source.
# Tests used:
# Streptokinase A = target: T1, Streptokinase A (Streptococcus pyogenes serotype M1, UniProt P10520); assay: S. pyogenes streptokinase expression inhibitors, potency, dose response, plasminogen activation absorbance, OD405 (AID 1914); assay type: functional, Streptococcus pyogenes M1 GAS;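 further: secreted streptokinase activity via plasminogen activation per viability signal from cell pellet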
# T1 sequence (P10520 whole entry): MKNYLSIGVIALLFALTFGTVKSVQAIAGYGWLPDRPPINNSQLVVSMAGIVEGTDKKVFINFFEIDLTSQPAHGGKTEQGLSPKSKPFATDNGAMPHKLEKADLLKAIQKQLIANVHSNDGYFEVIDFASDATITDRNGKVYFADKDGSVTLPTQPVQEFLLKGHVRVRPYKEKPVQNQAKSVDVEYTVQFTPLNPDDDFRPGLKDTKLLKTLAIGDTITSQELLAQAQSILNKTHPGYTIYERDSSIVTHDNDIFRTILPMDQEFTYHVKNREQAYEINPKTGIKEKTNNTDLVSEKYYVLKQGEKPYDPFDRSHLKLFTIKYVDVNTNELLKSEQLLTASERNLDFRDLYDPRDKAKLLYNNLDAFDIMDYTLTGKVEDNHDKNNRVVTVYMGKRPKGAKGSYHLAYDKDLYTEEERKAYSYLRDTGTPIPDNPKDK
# Streptococcus = assay: Group A Streptococcus viability loss, dose response, counter-screen for streptokinase expression inhibitor project, luminescence, BacTiterGlo (AID 1915); assay type: functional, organism-based;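 further: potency for reduction of bacterial viability or growth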
# [1] = tested on: Streptococcus sp. 'group A'; assay: growth inhibition of control SK(-) GAS strain, dose response, counter-screen for streptokinase expression inhibitor project, luminescence, kanamycin, BacTiterGlo, confirmation (AID 1900); assay type: functional, organism-based
# cells = assay type: functional
# [2] = target: T2, Carboxy-terminal domain RNA polymerase II polypeptide A small phosphatase 1 (Homo sapiens, UniProt Q9GZU7); assay: inhibitors of CTDSP1, concentration-response testing, biochemical assay, absorbance-based, actives from ultra-high-throughput screening (AID 540297); assay type: functional
# T2 sequence (Q9GZU7 whole entry): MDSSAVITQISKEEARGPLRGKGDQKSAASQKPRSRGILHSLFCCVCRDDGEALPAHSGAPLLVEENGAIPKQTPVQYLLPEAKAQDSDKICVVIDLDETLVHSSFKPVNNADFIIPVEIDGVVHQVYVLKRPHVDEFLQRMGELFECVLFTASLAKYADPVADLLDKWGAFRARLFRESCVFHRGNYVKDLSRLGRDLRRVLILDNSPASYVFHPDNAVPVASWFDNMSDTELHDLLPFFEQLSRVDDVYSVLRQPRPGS
# Cytochrome P450 2C19 = Cytochrome P450 2C19 (Homo sapiens, UniProt P33261); assay: Cytochrome panel assay with activity outcomes. Panel member name: p450-cyp2c19 Compounds with AC50 equal or less than 10 uM are considered active; assay type: functional; settings: read-out: AC50
# Cytochrome P450 2C19, sequence (P33261 whole entry): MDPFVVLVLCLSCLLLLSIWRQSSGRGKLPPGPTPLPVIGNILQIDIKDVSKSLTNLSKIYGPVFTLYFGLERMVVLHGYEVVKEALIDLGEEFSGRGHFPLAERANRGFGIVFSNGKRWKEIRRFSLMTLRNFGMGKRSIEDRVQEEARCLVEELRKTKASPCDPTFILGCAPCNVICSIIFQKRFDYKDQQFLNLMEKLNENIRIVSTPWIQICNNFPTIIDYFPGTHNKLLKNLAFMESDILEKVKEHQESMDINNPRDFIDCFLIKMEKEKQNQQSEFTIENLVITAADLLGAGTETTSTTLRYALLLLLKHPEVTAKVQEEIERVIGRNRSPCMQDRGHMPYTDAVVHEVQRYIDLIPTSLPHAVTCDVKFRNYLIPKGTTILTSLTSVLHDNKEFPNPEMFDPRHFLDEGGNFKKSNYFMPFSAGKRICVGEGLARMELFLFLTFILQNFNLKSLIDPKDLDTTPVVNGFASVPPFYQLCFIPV
# BJ [3] = assay: cells; assay type: functional, cell-based; settings: Homo sapiens
# [4] = cytotoxicity toward DRD oncogenic fibroblasts, dose response, cell-based, non-viral oncogenic, luminescence (AID 1934); assay type: functional; settings: Homo sapiens
# BJ [5] = assay: cytotoxicity toward BJ-TERT-LT-ST fibroblasts, dose response, cell-based, RAS-independent, luminescence (AID 1935); assay type: functional; settings: Homo sapiens;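 further: BJ fibroblasts immortalized with TERT plus LT and ST oncogenes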
# [6] = target: T3, Replicative DNA helicase DnaB (Mycobacterium tuberculosis, UniProt P9WMR3); assay: DnaB intein splicing inhibitors, dose response, biochemical, cell-free fluorescence (AID 449749); assay type: functional
# T3 sequence (P9WMR3 whole entry): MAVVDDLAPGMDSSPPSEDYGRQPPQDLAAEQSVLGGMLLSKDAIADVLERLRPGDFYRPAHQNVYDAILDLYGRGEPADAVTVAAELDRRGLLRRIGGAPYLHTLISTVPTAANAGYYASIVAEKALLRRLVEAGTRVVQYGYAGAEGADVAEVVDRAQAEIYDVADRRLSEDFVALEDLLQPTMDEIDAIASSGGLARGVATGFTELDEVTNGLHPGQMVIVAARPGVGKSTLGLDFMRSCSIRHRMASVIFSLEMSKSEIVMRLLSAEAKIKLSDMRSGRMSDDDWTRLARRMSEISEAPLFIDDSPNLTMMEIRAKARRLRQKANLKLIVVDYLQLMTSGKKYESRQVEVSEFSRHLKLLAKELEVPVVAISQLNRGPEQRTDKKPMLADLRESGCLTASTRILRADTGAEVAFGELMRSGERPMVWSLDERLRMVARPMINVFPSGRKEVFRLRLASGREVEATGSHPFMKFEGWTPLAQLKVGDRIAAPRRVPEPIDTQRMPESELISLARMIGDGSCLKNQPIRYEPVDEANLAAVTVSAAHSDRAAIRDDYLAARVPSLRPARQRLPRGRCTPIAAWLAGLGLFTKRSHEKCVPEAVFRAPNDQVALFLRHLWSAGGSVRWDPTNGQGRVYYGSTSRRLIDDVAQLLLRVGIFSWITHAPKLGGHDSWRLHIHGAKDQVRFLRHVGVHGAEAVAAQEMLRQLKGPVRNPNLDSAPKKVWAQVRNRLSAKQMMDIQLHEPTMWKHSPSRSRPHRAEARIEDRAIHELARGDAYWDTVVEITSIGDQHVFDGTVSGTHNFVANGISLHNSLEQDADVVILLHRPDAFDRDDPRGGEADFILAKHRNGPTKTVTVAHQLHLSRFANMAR
# [7] = HEp-2 cell cytotoxicity, dose response, cytotoxicity control for RSV inhibitor project, HTS (AID 2410); assay type: functional; settings: human respiratory syncytial virus
# Protein RecA = target: T4, Protein RecA (Mycobacterium tuberculosis, UniProt P9WHJ3); assay: Fluorescence Cell-Free Homogeneous Dose Retest to Identify Inhibitors of RecA-Intein Splicing Activity. [Related pubchem assays (depositor defined):AID2097, AID2223, AID489010, AID492950]; assay type: functional
# T4 sequence (P9WHJ3 whole entry): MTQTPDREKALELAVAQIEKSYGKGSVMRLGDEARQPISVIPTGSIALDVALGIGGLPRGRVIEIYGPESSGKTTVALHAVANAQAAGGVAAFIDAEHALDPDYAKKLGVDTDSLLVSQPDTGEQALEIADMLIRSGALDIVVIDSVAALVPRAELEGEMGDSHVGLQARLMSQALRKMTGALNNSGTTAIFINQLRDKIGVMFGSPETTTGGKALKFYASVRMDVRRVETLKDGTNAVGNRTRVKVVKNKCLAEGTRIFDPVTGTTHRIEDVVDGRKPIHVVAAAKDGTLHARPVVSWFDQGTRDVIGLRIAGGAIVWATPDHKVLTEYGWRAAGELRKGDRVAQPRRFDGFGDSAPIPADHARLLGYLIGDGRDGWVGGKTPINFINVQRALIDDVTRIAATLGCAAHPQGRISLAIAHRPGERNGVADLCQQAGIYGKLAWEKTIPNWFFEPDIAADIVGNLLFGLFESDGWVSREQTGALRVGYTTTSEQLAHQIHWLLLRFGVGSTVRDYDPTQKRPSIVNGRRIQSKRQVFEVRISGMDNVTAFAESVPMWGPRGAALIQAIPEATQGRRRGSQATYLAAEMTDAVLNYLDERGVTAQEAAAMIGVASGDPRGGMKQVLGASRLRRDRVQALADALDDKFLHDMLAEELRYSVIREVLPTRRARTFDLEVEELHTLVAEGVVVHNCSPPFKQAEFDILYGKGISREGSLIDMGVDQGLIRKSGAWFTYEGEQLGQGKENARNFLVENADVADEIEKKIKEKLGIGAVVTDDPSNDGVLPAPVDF
# BJ [8] = assay: cytotoxicity toward BJ-TERT fibroblasts, dose response, cell-based, RAS-independent, luminescence (AID 1933); assay type: functional; settings: Homo sapiens
# [9] = control 3'UTR Renilla luciferase suppression, dose response, counter-screen for Shn3 inhibitor project, cell-based, Clone20-Shn3RL, cherry-picked (AID 624133); assay type: functional
# [10] = Shn3 3'UTR reporter inhibitors, dose response, cell-based, Clone20 osteoblasts, firefly luciferase, cherry-picked (AID 624132); assay type: functional;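 further: firefly luciferase luminescence from reporter carrying the Shn3 3'UTR in osteoblasts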
# [11] = intracellular Trypanosoma cruzi inhibitors in host cells – cell-based, plate reader, cherry-pick samples, set 3, dose response (AID 651818); assay type: functional;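 further: compounds incubated with infected cells for about four days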
# [12] = P. falciparum Dd2 growth inhibitors, dose response, SYBR Green, cherry-picked samples (AID 1159567); assay type: functional, cell-based
smiles,measurement,setting,value
CCOc1ccccc1C(=O)OCC(=O)Nc1nnc(-c2ccccc2)o1,EC50,Streptokinase A,> 150 µM (not active)
same,EC50,Streptococcus,14.6 µM (active)
same,EC50,[1],4.56 µM (active)
same,IC50,cells,19.2 µM (active)
Cc1ccc2cc(C)c3nnc(SCC(=O)NCc4ccco4)n3c2c1,IC50,[2],8.54 µM (active)
same,AC50,Cytochrome P450 2C19,14.1 µM (inconclusive)
CCOc1ccc(CNC(=O)Cn2nc(C)c3c(C)n(-c4ccc(C)cc4)nc3c2=O)cc1,IC50,[2],6.46 µM (active)
O=C(Cn1cnc2sc(-c3ccccc3)cc2c1=O)NCc1ccccc1,IC50,[2],7.5 µM (active)
C=C(C)CCOC(=O)C(CC(=O)O)NCc1ccco1 (stereo not drawn),IC50,[2],4.85 µM (active)
O=C(NC(=S)N1CCN(C/C=C/c2ccccc2)CC1)c1ccco1,IC50,cells,32.2 µM (active)
Sc1c2c(nc3ncnn13)CCC2,IC50,cells,16.6 µM (active)
CCCOC(=O)c1ccc(-c2ccc(C=O)o2)cc1,IC50,cells,9.73 µM (active)
CCC(C)N(CC(=O)Nc1cccc(C)c1C)C(=O)CCl (stereo not drawn),EC50,BJ [3],5.48 µM (active)
same,EC50,[4],3.8 µM (active)
same,EC50,BJ [5],10.8 µM (active)
same,AC50,[6],57.3 µM (active)
same,CC50,[7],8.39 µM (active)
same,EC50,Protein RecA,8.81 µM (active)
same,EC50,BJ [8],0.608 µM (active)
COc1cc(Cl)c(C)cc1NC(=O)CSc1sc2c(O)cc(=O)[nH]c2c1C#N,IC50,[2],2.46 µM (active)
O=C(C1=C[C@@H](C2CC2)C[C@@H](OCCCCO)O1)N1CCN(Cc2ccccc2)CC1,AC50,[9],> 70 µM (inactive)
same,AC50,[10],> 70 µM (inactive)
CC1=CC(C)(C)N(C(=O)CCl)c2cc(C)ccc21,EC50,BJ [3],> 150 µM (not active)
same,EC50,[4],29.8 µM (active)
same,EC50,BJ [5],> 150 µM (not active)
same,EC50,BJ [8],5.77 µM (active)
NC(=O)c1ccc(NC(=O)COC(=O)c2cc3c(s2)CCC3)cc1,IC50,[2],4.91 µM (active)
C[C@@H]1CCCCO[C@H](CN(C)Cc2ccc(Cl)c(Cl)c2)[C@@H](C)CN([C@H](C)CO)C(=O)c2cc(NC(=O)CCCCCC(=O)Nc3ccccc3N)ccc2O1,AC50,[11],2.65 µM (active)
C[C@H]1CN([C@@H](C)CO)C(=O)Cc2cc(N(C)C)ccc2O[C@@H]1CN(C)Cc1ccc(Cl)c(Cl)c1,AC50,[11],2.09 µM (active)
Cc1ccc(S(=O)(=O)Nc2ccc3c(c2)C(=O)N([C@@H](C)CO)C[C@H](C)[C@@H](CN(C)Cc2ccc(-c4ccccc4)cc2)O3)cc1,AC50,[11],3.88 µM (active)
C[C@@H]1CN([C@@H](C)CO)C(=O)c2cccc(NC(=O)Nc3ccc4c(c3)OCO4)c2O[C@H]1CN(C)Cc1ccc(Cl)c(Cl)c1,AC50,[11],2.22 µM (active)
C[C@H]1CN([C@@H](C)CO)C(=O)Cc2cc(NC(=O)Nc3ccc4c(c3)OCO4)ccc2O[C@H]1CN(C)Cc1ccc(-c2ccccc2)cc1,AC50,[11],6.07 µM (active)
C[C@@H]1CCCCO[C@H](CN(C)Cc2ccc(C(=O)Nc3ccccc3N)cc2)[C@@H](C)CN([C@H](C)CO)C(=O)c2cc(NS(=O)(=O)c3ccc(Cl)cc3)ccc2O1,AC50,[11],1.11 µM (active)
C[C@@H]1CCCCO[C@@H](CN(C)CC2CCCCC2)[C@@H](C)CN([C@H](C)CO)C(=O)c2cc(NC(=O)Nc3ccc(F)cc3)ccc2O1,AC50,[11],1.64 µM (active)
CC(C)NC(=O)N(C)C[C@H]1Oc2c(NC(=O)c3cnccn3)cccc2C(=O)N([C@H](C)CO)C[C@H]1C,AC50,[11],3.41 µM (active)
C[C@@H]1CCCCO[C@H](CN(C)C(=O)Nc2ccc(C(F)(F)F)cc2)[C@@H](C)CN([C@H](C)CO)C(=O)c2cc(NC(=O)NC3CCCCC3)ccc2O1,AC50,[11],2.45 µM (active)
C[C@@H]1CN([C@@H](C)CO)C(=O)c2cccc(NC(=O)CCCCCC(=O)Nc3ccccc3N)c2O[C@H]1CN(C)Cc1ccc(Oc2ccccc2)cc1,AC50,[11],2.21 µM (active)
C[C@H](CO)N1C[C@H](C)[C@@H](CN(C)Cc2ccc3c(c2)OCO3)Oc2c(NC(=O)CCCCCC(=O)Nc3ccccc3N)cccc2C1=O,AC50,[11],2.21 µM (active)
CC(C)C#Cc1ccc([C@@H]2[C@H](CO)N3CCCCN(C(=O)c4ccc5c(c4)OCO5)C[C@@H]23)cc1,AC50,[12],5.18 µM (active)
C[C@@H]1CN([C@H](C)CO)C(=O)c2cccc(NS(=O)(=O)c3cccs3)c2O[C@H]1CN(C)Cc1ccc(C(F)(F)F)cc1,AC50,[12],7.6 µM (active)
COc1ccccc1-c1cccc(-c2nc(C(=O)Nc3nccs3)cc3c2[C@H](CCO)N(C(=O)CC2CC2)C3)c1,AC50,[12],4.27 µM (active)
CC(C)(C)[S@+]([O-])N1Cc2cc(C(=O)NCCN3CCCC3)nc(-c3cccc(-c4ccc(C#N)cc4)c3)c2[C@@H]1CCO,AC50,[12],6.6 µM (active)
CO[C@@H]1CN(C)C(=O)c2ccc(NC(=O)NC3CCCCC3)cc2OC[C@@H](C)N(CCc2ccccc2)C[C@H]1C,AC50,[12],5.41 µM (active)
